In patent US10118935B2, “Melampomagnolide B dimers” (priority 2014, dated 2018):

Key:
SK-MEL-2 = assay: NCI 60 cell line five dose, Melanoma
NCI-H460 = assay: NCI 60 cell line five dose, Non-Small Cell Lung Cancer
KM12 = assay: NCI 60 cell line five dose, Colon Cancer
M14 = assay: NCI 60 cell line five dose, Melanoma
[1] = test system: panel of 60 human cancer cell lines; assay: Five-dose growth inhibition, panel; format: cell-based
MOLT-4 = assay: NCI 60 cell line five dose, Leukemia
SR = assay: NCI 60 cell line five dose, Leukemia
NCI-H23 = assay: NCI 60 cell line five dose, Non-Small Cell Lung Cancer
U251 = assay: NCI 60 cell line five dose, CNS Cancer
T-47D = assay: NCI 60 cell line five dose, Breast Cancer
NCI-H322M [2] = test system: NCI-H322M
NCI-H322M [3] = assay: NCI 60 cell line five dose, Non-Small Cell Lung Cancer
NCI-H226 = assay: as above
OVCAR-3 = assay: NCI 60 cell line five dose, Ovarian Cancer
HCC-2998 = assay: NCI 60 cell line five dose, Colon Cancer
OVCAR-4 = assay: NCI 60 cell line five dose, Ovarian Cancer
HOP-92 = assay: NCI 60 cell line five dose, Non-Small Cell Lung Cancer
OVCAR-8 = assay: NCI 60 cell line five dose, Ovarian Cancer
K-562 = assay: NCI 60 cell line five dose, Leukemia
SF-268 = assay: NCI 60 cell line five dose, CNS Cancer
UO-31 = assay: NCI 60 cell line five dose, Renal Cancer
TK-10 = assay: NCI 60 cell line five dose, Renal Cancer

With `C=C1C(=O)O[C@H]2[C@H]1CC/C(COC(=O)CCC(=O)NCCCCCCCCNC(=O)CCC(=O)OC/C1=C/CC[C@@]3(C)O[C@H]3[C@H]3OC(=O)C(=C)[C@@H]3CC1)=C\CC[C@@]1(C)O[C@@H]21` [JVM 2-87, bis(((1aR,7aS,10aS,10bS,E)-1a-Methyl-8-methylene-9-oxo-1a,2,3,6,7,7a,8,9,10a,1b-decahydrooxireno[2′,3′:9,10]cyclodeca[1,2-b]furan-5-yl)methyl)4,4′-(octane-1,8-diylbis(azanediyl))bis(4-oxobutanoate)] the GI50 (SK-MEL-2) was 2.25 µM, the TGI (SK-MEL-2) was 4.59 µM and the GI50 (NCI-H460) was 5 µM. The TGI (NCI-H460) was 19.9 µM, the GI50 (KM12) was 9.46 µM and the TGI (KM12) was 22.9 µM. For the same compound, the GI50 (M14) was 1.79 µM, the TGI (M14) was 3.79 µM and the “growth inhibition (GI50)” value ([1]; CCRF-CEM, HL-60 (TB), K-562, SR) was “nanomolar range”. For the same compound, the “growth inhibition (GI50)” value ([1]; NCI-H522, RXF 393, MCF7) was “nanomolar range”, the “growth inhibition (GI50)” value ([1]; other human tumor cell lines in the panel) was “low micromolar range” and the GI50 (MOLT-4) was 2.11 µM. It also gave a TGI (MOLT-4) of 6.41 µM, a GI50 (SR) of 0.41 µM and a TGI (SR) of 2.10 µM. It also gave a GI50 (NCI-H23) of 2.99 µM, a TGI (NCI-H23) of 8.25 µM and a GI50 (U251) of 3.03 µM. For the same compound, the TGI (U251) was 10.6 µM, the GI50 (T-47D) was 1.51 µM and the TGI (T-47D) was 3.86 µM. The CC50 (NCI-H322M [2]) was 60.5 µM, the GI50 (NCI-H322M [3]) was 16.3 µM and the TGI (NCI-H322M [3]) was 31.4 µM. It also gave a GI50 (NCI-H226) of 2.06 µM, a TGI (NCI-H226) of 4.95 µM and a GI50 (OVCAR-3) of 1.5 µM. The TGI (OVCAR-3) was 2.82 µM, the GI50 (HCC-2998) was 4.12 µM and the TGI (HCC-2998) was 16.7 µM. The GI50 (HL-60(TB)) was 0.63 µM, the TGI (HL-60(TB)) was 3.12 µM and the CC50 (HL-60(TB); read-out: LC50) was > 100 µM. The GI50 (OVCAR-4) was 1.64 µM, the TGI (OVCAR-4) was 3.92 µM and the GI50 (HOP-92) was 1.58 µM. It also gave a TGI (HOP-92) of 3.27 µM, a GI50 (OVCAR-8) of 2.9 µM and a TGI (OVCAR-8) of 13.3 µM. For the same compound, the GI50 (K-562) was 0.97 µM, the TGI (K-562) was 12.9 µM and the GI50 (SF-268) was 3.34 µM. It also gave a TGI (SF-268) of 11.6 µM, a GI50 (UO-31) of 10.9 µM and a TGI (UO-31) of 24.2 µM. For the same compound, the GI50 (TK-10) was 20.8 µM and the TGI (TK-10) was 3.94 µM.
